Data published in patent US11109593B2, “Isoxazolin-5-one derivative and herbicide containing same as active ingredient” (HOKKO CHEMICAL INDUSTRY CO., LTD., priority 2017, dated 2021).

What was measured:
Assay type in all cases: in vivo
[1] = test system: Scirpus juncoides; test: Test Example 1: herbicidal effect test by treatment of rice paddy soil (immediately after seeding); conditions: 120 g/10a active ingredient, dry weight vs untreated area, 14 days after treatment
Description: (§1) Herbicidal Effect Test by Treatment of Rice Paddy Soil
(§2) Wagner pots with an area of 1/10000 ares were filled with a paddy soil, and after adding water, a compound fertilizer (N:P:K=17:17:17) was added, followed by soil puddling. Then, Echinochloa crus-galli, broad leaf weeds (Lindernia pyxidaria and Monochoria vaginalis) and Scirpus juncoides, 30 seeds each, were sown in a depth of 0 to 1 cm. Water was poured immediately after seeding, and the water depth was kept at about 3 cm. The subsequent management was conducted in a glass greenhouse. Immediately after that, emulsions prepared using the compounds in Table 3 below according to Formulation Example 5 were diluted with water, and a certain amount of the water-diluted agent solutions were dropped. The converted amount of the applied active ingredient corresponded to 120 g per 10 ares.
(§3) This test was conducted in a double system per one agent solution concentration area, and the herbicidal rates (%) were determined by the following equation (Math. 1) on 14 days after the treatment with the agents. Herbicidal Rate (%)={1-(Average Dry Weight (g) of Plant of Treated Area)/(Average Dry Weight (g) of Plant of Untreated Area)}×100 [Math. 1]
(§4) The compound numbers in Table 3 are the same as those in Table 1 and Table 2 above.

[2] = test system: Echinochloa crus-galli; test: as above; conditions: 120 g/10a active ingredient, dry weight vs untreated area, 14 days after treatment
Description: as §1, §2, §3, §4

[3] = test system: broad leaf weeds (Lindernia pyxidaria and Monochoria vaginalis); test: as above; conditions: 120 g/10a active ingredient, dry weight vs untreated area, 14 days after treatment
Description: as §1, §2, §3, §4

[4] = test system: Scirpus juncoides; test: Test Example 2: herbicidal effect test by treatment during growing period in paddy rice cultivation (seven days after seeding); conditions: 120 g/10a active ingredient, assessed 14 days after treatment, dry weight vs untreated area
Description: as §3
(§5) Herbicidal Effect Test by Treatment During Growing Period in Paddy Rice Cultivation
as §2, with “was mixed,” for “was added,”, “greenhouse. Emulsions” for “greenhouse. Immediately after that, emulsions”, “Table 4” for “Table 3”, “with water seven days after seeding,” for “with water,”, “ares. The test was conducted in a double system per one agent solution concentration area, and the herbicidal rates (%) were determined by the equation (Math. 1) on 14 days after the treatment with the agents. […] The compound numbers in Table 4 are the same as those in Table 1 and Table 2 above.” for “ares.”

[5] = test system: Echinochloa crus-galli; test: as above; conditions: 120 g/10a active ingredient, assessed 14 days after treatment, dry weight vs untreated area
Description: as §3, §5
as §2, with “was mixed,” for “was added,”, “greenhouse. Emulsions” for “greenhouse. Immediately after that, emulsions”, “Table 4” for “Table 3”, “with water seven days after seeding,” for “with water,”, “ares. The test was conducted in a double system per one agent solution concentration area, and the herbicidal rates (%) were determined by the equation (Math. 1) on 14 days after the treatment with the agents. […] The compound numbers in Table 4 are the same as those in Table 1 and Table 2 above.” for “ares.”

[6] = test system: broad leaf weeds (Lindernia pyxidaria and Monochoria vaginalis); test: as above; conditions: 120 g/10a active ingredient, assessed 14 days after treatment, dry weight vs untreated area
Description: as §3, §5
as §2, with “was mixed,” for “was added,”, “greenhouse. Emulsions” for “greenhouse. Immediately after that, emulsions”, “Table 4” for “Table 3”, “with water seven days after seeding,” for “with water,”, “ares. The test was conducted in a double system per one agent solution concentration area, and the herbicidal rates (%) were determined by the equation (Math. 1) on 14 days after the treatment with the agents. […] The compound numbers in Table 4 are the same as those in Table 1 and Table 2 above.” for “ares.”

| Compound | Herbicidal rate (%) Scirpus juncoides [1] | Herbicidal rate (%) Echinochloa crus-galli [2] | Herbicidal rate (%) Lindernia pyxidaria [3] | Herbicidal rate (%) Monochoria vaginalis [3] | Herbicidal rate (%) Scirpus juncoides [4] | Herbicidal rate (%) Echinochloa crus-galli [5] | Herbicidal rate (%) Lindernia pyxidaria [6] | Herbicidal rate (%) Monochoria vaginalis [6] |
| --- | --- | --- | --- | --- | --- | --- | --- | --- |
| Cc1c(Cc2ccccc2NS(=O)(=O)C(F)(F)F)c(=O)on1C(C)c1ccc(F)cc1 (stereo not shown) [Compound 1-204] | 90% | 100% | 90% | 90% | 80% | 80% | 80% | 80% |
| Cc1c(Cc2ccccc2NS(=O)(=O)C(F)(F)F)c(=O)on1C(C)c1ccccc1Cl (stereo not shown) [Compound 1-205] | 90% | 100% | 100% | 100% | 80% | 50% | 90% | 90% |
| Cc1c(Cc2ccccc2NS(=O)(=O)C(F)(F)F)c(=O)on1C(C)c1cccc(Cl)c1 (stereo not shown) [Compound 1-206] | 90% | 90% | 100% | 100% | 80% | 60% | 80% | 90% |
| Cc1c(Cc2ccccc2NS(=O)(=O)C(F)(F)F)c(=O)on1C(C)c1ccc(Cl)cc1 (stereo not shown) [Compound 1-207] | 90% | 100% | 100% | 100% | 70% | 60% | 60% | 70% |
| Cc1c(Cc2ccccc2NS(=O)(=O)C(F)(F)F)c(=O)on1C(C)c1ccc(OC(F)(F)F)cc1 (stereo not shown) [Compound 1-209] | 70% | 90% | 60% | 60% | 90% | 40% | 60% | 80% |
| Cc1c(Cc2ccccc2NS(=O)(=O)C(F)(F)F)c(=O)on1CC(F)(F)c1ccccc1 [Compound 1-220] | 90% | 90% | 100% | 100% | 90% | 40% | 100% | 90% |
| Cc1c(Cc2ccccc2NS(=O)(=O)C(F)(F)F)c(=O)on1Cc1cccs1 [Compound 1-231] | 80% | 90% | 80% | 90% | 60% | 60% | 40% | 40% |
| Cc1c(Cc2ccccc2NS(=O)(=O)C(F)(F)F)c(=O)on1Cc1ccsc1 [Compound 1-232] | 90% | 90% | 80% | 90% | 60% | 70% | 40% | 40% |
| Cc1c(Cc2ccccc2NS(=O)(=O)C(F)(F)F)c(=O)on1C(C)c1ccsc1 (stereo not shown) [Compound 1-235] | 80% | 90% | 60% | 80% | 60% | 50% | 40% | 60% |
| Cc1c(Cc2ccccc2NS(=O)(=O)C(F)(F)F)c(=O)on1CCOCc1ccccc1 [Compound 1-238] | 80% | 100% | 80% | 80% | 80% | 80% | 40% | 80% |
| CCN(c1ccccc1Cc1c(C)n(CC(C)C)oc1=O)S(=O)(=O)C(F)(F)F [Compound 1-263] | 60% | 50% | 80% | 50% | 90% | 90% | 40% | 60% |
| CCC(CC)Cn1oc(=O)c(Cc2ccccc2N(CC)S(=O)(=O)C(F)(F)F)c1C [Compound 1-264] | 100% | 90% | 80% | 90% | 90% | 80% | 50% | 80% |
| CCOC(=O)N(c1ccccc1Cc1c(C)n(CC(C)C)oc1=O)S(=O)(=O)C(F)(F)F [Compound 1-608] | 90% | 70% | 70% | 80% | 80% | 90% | 60% | 80% |
| CCCOC(=O)N(c1ccccc1Cc1c(C)n(C(C)COC)oc1=O)S(=O)(=O)C(F)(F)F (stereo not shown) [Compound 1-634] | 90% | 90% | 90% | 90% | 90% | 90% | 90% | 90% |
